From BindingDB's records for doi:10.1016/j.bmcl.2004.04.020 (Texas Tech University Health Sciences Center, 2004)

experiment: Inhibition of [3H]choline brain uptake through choline transporter was determined in situ brain perfusion studies in Male Fischer-344 rats

In the case of `CCCCCCCC[N+](C)(C)CCO` [(2-Hydroxy-ethyl)-dimethyl-octyl-ammonium], the Ki is reported as 2.1 µM.

experiment: as above; remark: another data set of the same source

Going from `CC[N+](CC)(CC)CCO` to `CC[N+](C)(C)CCO` [Ethyl-(2-hydroxy-ethyl)-dimethyl-ammonium], the Ki falls from 1900 µM to 94 µM (20-fold). The second binds more tightly here.

First: CCN1CC=C(C(C)=O)CC1 [1-(1-Ethyl-1,2,3,6-tetrahydro-pyridin-4-yl)-ethanone]
Second: CC(=O)C1=CCC(CCc2ccccc2)CC1 (configuration not stated) [1-(4-Phenethyl-cyclohex-1-enyl)-ethanone]
The Ki of the first is higher: greater than 10000 µM for the first, 495 µM for the second. The second binds more tightly here.

Compared with `C[N+](C)(C)CCCO`, `C[N+](C)(C)CCCCO` is higher in Ki: 162 µM for the first, greater than 10000 µM for the second.

Going from `C[N+](C)(CCO)c1ccccc1` [(2-Hydroxy-ethyl)-dimethyl-phenyl-ammonium] to `C[N+](C)(CCO)c1ccc(F)cc1` [(4-Fluoro-phenyl)-(2-hydroxy-ethyl)-dimethyl-ammonium], the Ki falls from greater than 10000 µM to 737 µM. The second binds more tightly here.

Compared with `CCCCCCCCN1CCCCC1` [1-Octyl-piperidine], `OCCCN1CCN(Cc2cccnc2)CC1` [3-(4-Pyridin-3-ylmethyl-piperazin-1-yl)-propan-1-ol] is higher in Ki: 32 µM for the first, greater than 10000 µM for the second. The first binds more tightly here.

Going from `CN(C)C1CCCCC1O` (configuration not stated) [2-Dimethylamino-cyclohexanol] to `CCC[N+](C)(C)CCO` [(2-Hydroxy-ethyl)-dimethyl-propyl-ammonium], the Ki falls from greater than 10000 µM to 190 µM. The second binds more tightly here.

Compared with `CC(O)C[N+](C)(C)C` (stereo not drawn) [beta-methylcholine], `CC[N+](C)(C)C` [Ethyl-trimethyl-ammonium] is 24-fold higher in Ki: 200 µM for the first, 4700 µM for the second.

First: CCCC[N+](C)(C)CCO [Butyl-(2-hydroxy-ethyl)-dimethyl-ammonium]
Second: CSCCO [2-Methylsulfanyl-ethanol]
The Ki of the first is lower: 40 µM for the first, greater than 10000 µM for the second.
